Test results reported in patent US20260007601A1, “IONIZABLE CATIONIC LIPID COMPOUND AND COMPOSITION FOR DELIVERING NUCLEIC ACID AND USE THEREOF” (BEIJING YOUCAREKECHUANG PHARMACEUTICAL TECHNOLOGY CO., LTD., priority 2023, published 2026).
Where “and” joins values, the source holds several entries; their conditions need not be identical. Identical values can stand only once.

How the values were obtained:
293T cells [1] = experiment: Cell survival rate assay (CCK-8); assay type: cell-based; details: for Cell survival rate: LNP containing 1.5 μg Fluc-mRNA, 24 hours, CCK-8; for cell survival rate higher (cytotoxicity reduced) compared with YK-221 / cell survival rate higher (toxicity lower) than that of YK-204 / cell survival rate higher (toxicity lower) than that of YK-225 / cell survival rate higher than that of ALC-0315 / cell survival rate higher than that of HHMA / cell survival rate higher than that of Lipofectamine 3000 / cell survival rate higher than that of SM-102 / cell survival rate higher than that of YK-203 / cell survival rate higher than that of YK-205 / cell survival rate higher than that of YK-208 / cell survival rate higher than that of YK-210 / cell survival rate higher than that of YK-211 / cell survival rate higher than that of YK-212 / cell survival rate higher than that of YK-213 / cell survival rate higher than that of YK-214 / cell survival rate higher than that of YK-215 / cell survival rate higher than that of YK-216 / cell survival rate higher than that of YK-217 / cell survival rate higher than that of YK-219 / cell survival rate higher than that of YK-220 / cell survival rate higher than that of YK-222 / cell survival rate higher than that of YK-223 / cell survival rate higher than that of YK-224 / cell survival rate higher than that of YK-226 / cell survival rate higher than that of compound 21 / cell survival rate higher than that of compound 23: difference of rates
Procedure, shortened: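 293T cells seeded at 10,000 per well and grown overnight, then exposed for 24 h to LNPs (cationic/neutral/structured/PEG lipids 49:10:39.5:1.5) carrying 1.5 μg Fluc-mRNA, or Lipofectamine 3000. Viability read by CCK-8, 1 h incubation, absorbance at 450 nm.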

[2] = Particle size and polydispersity index (PDI) of nanolipid particles, dynamic light scattering; assay type: physicochemical; details: LNP formulation prepared from the named cationic lipid, 25° C
Description: The particle size and polydispersity index (PDI) were determined by dynamic light scattering method using a Malvern laser particle size analyzer. 10 μL of liposome solution was diluted to 1 mL with RNase-free deionized water and added to a sample pool. Each sample was measured three times. The measurement conditions were: 90° scattering angle, 25° C.

293T cells [3] = experiment: Cell transfection experiment of LNP formulation of eGFP-mRNA (optimization of preparation conditions); assay type: cell-based; details: 0.5% to 15% tested
Description: The cationic lipid compound YK-202 synthesized in Example 1, DSPC (AVT (Shanghai) Pharmaceutical Technology Co., Ltd.), cholesterol (AVT (Shanghai) Pharmaceutical Technology Co., Ltd.) and DMG-PEG2000 were dissolved in ethanol at a molar ratio of 49:10:39.5:1.5 to prepare an ethanol lipid solution. The ethanol lipid solution was quickly added to a citrate buffer (pH=4 to 5) by ethanol injection method and vortexed for 30 seconds for use. eGFP-mRNA was diluted in a citrate buffer (pH=4 to 5) to obtain an mRNA aqueous solution. […]
Plating: The cells in the culture dish were digested, counted, plated in a 96-well plate at 10,000 cells per well, or in a 12-well plate at 150,000 cells per well, and cultured overnight until the cells adhered to the wall.
Cell transfection experiment: The LNP formulation containing 1.5 μg of eGFP-mRNA prepared in Example 2 (the cationic lipid in the carrier was YK-202) and Lipofectamin 3000 formulation of eGFP-mRNA were added to the cell culture medium in a 12-well plate, and the cells were cultured for 24 hours. The transfection efficiency of different samples was investigated by fluorescence microscopy based on the fluorescence intensity.

| SMILES | Cell survival rate (293T cells [1]) [%] | cell survival rate higher (cytotoxicity reduced) compared with YK-221 (293T cells [1]) | cell survival rate higher (toxicity lower) than that of YK-204 (293T cells [1]) | cell survival rate higher (toxicity lower) than that of YK-225 (293T cells [1]) | cell survival rate higher than that of ALC-0315 (293T cells [1]) [%] | cell survival rate higher than that of HHMA (293T cells [1]) [%] | cell survival rate higher than that of Lipofectamine 3000 (293T cells [1]) [%] | cell survival rate higher than that of SM-102 (293T cells [1]) [%] | cell survival rate higher than that of YK-203 (293T cells [1]) [%] | cell survival rate higher than that of YK-205 (293T cells [1]) [%] | cell survival rate higher than that of YK-208 (293T cells [1]) [%] | cell survival rate higher than that of YK-210 (293T cells [1]) [%] | cell survival rate higher than that of YK-211 (293T cells [1]) [%] | cell survival rate higher than that of YK-212 (293T cells [1]) [%] | cell survival rate higher than that of YK-213 (293T cells [1]) [%] | cell survival rate higher than that of YK-214 (293T cells [1]) | cell survival rate higher than that of YK-215 (293T cells [1]) [%] | cell survival rate higher than that of YK-216 (293T cells [1]) [%] | cell survival rate higher than that of YK-217 (293T cells [1]) [%] | cell survival rate higher than that of YK-219 (293T cells [1]) [%] | also measured |
| --- | --- | --- | --- | --- | --- | --- | --- | --- | --- | --- | --- | --- | --- | --- | --- | --- | --- | --- | --- | --- | --- |
| CCCCCCCCCCCOC(=O)CCCCCN(CCCCCCCC(=O)OC(CCCCCCCC)CCCCCCCC)CCN(C)CCO [YK-201, heptadecan-9-yl-8-(2-((2-hydroxyethyl)(methylamino))ethyl)(6-oxo-6-((undecanyloxy)hexyl)amino)octanoate] | 75.93 | 55% and 54.98% | 30% and 33.36% | 32.52% | 25.97 | 10.37 | 52.88 | 7.38 | 40.37 | 17.01 | 29.25 | 37.55 | 23.63 | 40.67 | 34.49 | 50.35% and 50% | 31.34 | 30.13 | 33.66 | 17.32 | cell survival rate higher than that of YK-220 (293T cells [1]): 16.94%; cell survival rate higher than that of YK-222 (293T cells [1]): 42.18%; cell survival rate higher than that of YK-223 (293T cells [1]): 39.29%; cell survival rate higher than that of YK-224 (293T cells [1]): 52.46%; cell survival rate higher than that of YK-226 (293T cells [1]): 48.03%; cell survival rate higher than that of compound 21 (293T cells [1]): 6.91%; cell survival rate higher than that of compound 23 (293T cells [1]): 5.83%; PDI [2]: 25.5%; Particle size [2]: 205 nm |
| CCCCCCCCCCCOC(=O)CCCCCN(CCCCCCCC(=O)OCC(CCCCCCCC)CCCCCCCC)CCN(C)CCO [YK-202] | 76.81 | 55% and 55.86% | 34.24% | 33.40% | 26.85 | 11.25 | 53.76 | 8.26 | 41.25 | 17.89 | 30.13 | 38.43 | 24.51 | 41.55 | 35.37 | 51.23% and 50% | 32.22 | 31.01 | 34.54 | 18.20 | cell survival rate higher than that of YK-220 (293T cells [1]): 17.82%; cell survival rate higher than that of YK-222 (293T cells [1]): 43.06%; cell survival rate higher than that of YK-223 (293T cells [1]): 40.17%; cell survival rate higher than that of YK-224 (293T cells [1]): 53.34%; cell survival rate higher than that of YK-226 (293T cells [1]): 48.91%; cell survival rate higher than that of compound 21 (293T cells [1]): 7.79%; cell survival rate higher than that of compound 23 (293T cells [1]): 6.71%; molar ratio of polymer-conjugated lipid DMG-PEG2000 to carrier with the highest transfection efficiency (293T cells [3]): 1.5%; PDI [2]: 23.4%; Particle size [2]: 173 nm |
| CCCCCCCCC(CCCCCCCC)COC(=O)CCCCCN(CCCCCC(=O)OCC(CCCCCCCC)CCCCCCCC)CCN(C)CCO [YK-209, bis(2-octyldecyl)-6,6′-((2-(2-hydroxyethyl(methyl)amino)ethyl)azadialkyl)dihexanoate] | 76.69 | 55% and 55.74% | 34.12% | 30% and 33.28% | 26.73 | 11.13 | 53.64 | 8.14 | 41.13 | 17.77 | 30.01 | 38.31 | 24.39 | 41.43 | 35.25 | 51.11% and 50% | 32.10 | 30.89 | 34.42 | 18.08 | cell survival rate higher than that of YK-220 (293T cells [1]): 17.70%; cell survival rate higher than that of YK-222 (293T cells [1]): 42.94%; cell survival rate higher than that of YK-223 (293T cells [1]): 40.05%; cell survival rate higher than that of YK-224 (293T cells [1]): 53.22%; cell survival rate higher than that of YK-226 (293T cells [1]): 48.79%; cell survival rate higher than that of compound 21 (293T cells [1]): 7.67%; cell survival rate higher than that of compound 23 (293T cells [1]): 6.59%; PDI [2]: 26.6%; Particle size [2]: 226 nm |
